Assay results: patent US8530669B2, “Ester compound and use thereof” (Sumitomo Chemical Company, Limited, priority 2010, dated 2013)

What was measured:
[1] = tested on: American cockroaches (Periplaneta Americana); experiment: Test Example 1: oil solution spray knock-down test on American cockroaches; assay type: in vivo; settings: adult American cockroaches, 1.5 ml of 0.1% (w/v) oil solution sprayed, repeated twice
Experimental: (§1) Zero point one (0.1) part of the compound of the present inventions (1), (2) and (4) was dissolved in 10 parts of isopropyl alcohol and the solution was mixed with 89.9 parts of deodorized kerosene to prepare a 0.1% (w/v) oil solution.
(§2) Six adult American cockroaches (Periplaneta Americana, 3 males and 3 females) were released in a test container (diameter 12.5 cm, 10 cm high, the bottom face is made of 16 mesh metallic wire), the inner face on which butter was applied, and the container was set at the bottom of a test chamber (bottom face: 46 cm×46 cm, height: 70 cm). Each 1.5 ml of the oil solution of the compound of the present invention (1), (2) and (4) was sprayed using a spray gun at a pressure of 0.4 kg/cm^2 from 60 cm higher than the upper face of the container. Thirty seconds after the spraying, the container was pulled out from the chamber. After a prescribed time, the number of knocked-down cockroaches was counted and a knock-down ratio was determined (repeated twice). The knocked-down ratio was calculated by the following equation. Knocked-down ratio(%)=(Number of knocked-down cockroaches/Number of test cockroaches)×100
For comparison, the test was conducted in the same manner as the above, except for using 2,5-dioxo-3-(2-propynyl)imidazolidinylmethyl=(1R)-cis-3-((Z)-2-cyano-2-methoxyethenyl)-2,2-dimethylcyclopropane carboxylate (compound described in JP-A-60-16962, hereinafter referred to as the comparative compound (1)) represented by the following formula: […]

[2] = tested on: common mosquitoes (Culex pipens pallens); experiment: Test Example 2: oil solution spray knock-down test on common mosquitoes in glass chamber; assay type: in vivo; settings: adult female Culex pipens pallens, 0.025% (w/v) oil solution sprayed into 70 cm cubic glass chamber, 1 minute after spraying
Experimental: Zero point zero two five (0.025) part of the compound of the present invention (1) and (4) was dissolved in 10 parts of isopropyl alcohol, and the solution was mixed with 89.975 parts of deodorized kerosene to prepare a 0.025% (w/v) oil solution.
Ten adult female common mosquitoes (Culex pipens pallens) were released in a cubic glass chamber having each side of 70 cm. The oil solution of the compound of the present invention (1) and (4) was sprayed into the chamber through a small window on the side of the chamber using a spraying gun at a pressure of 0.9 kg/cm^2. One minutes after spraying, the number of knocked-down mosquitoes was counted and a knock-down ratio was determined. A knocked-down ratio was calculated by the following equation. Knocked-down ratio(%)=(Number of knocked-down mosquitoes/Number of test mosquitoes)×100

[3] = tested on: houseflies (Musca domestica); experiment: Test Example 3: oil solution spray knock-down test on houseflies in glass chamber; assay type: in vivo; settings: adult Musca domestica, 0.7 ml of 0.025% (w/v) oil solution sprayed into 70 cm cubic glass chamber
Experimental: Zero point zero two five (0.025) part of the compound of the present invention (1) and (4) was dissolved in 10 parts of isopropyl alcohol, and the solution was mixed with […] parts of deodorized kerosene to prepare a 0.025% (w/v) oil solution.
Ten adult houseflies (Musca domestica) were released in a cubic glass chamber having each side of 70 cm, and 0.7 ml of the oil solution of the compound of the present invention (1) and (4) was sprayed into the chamber through a small window on the side of the chamber using a spraying gun at a pressure of 0.9 kg/cm^2. Five minutes after spraying, the number of knocked-down flies was counted and a knock-down ratio was determined. A knocked-down ratio was calculated by the following equation. Knocked-down ratio(%)=(Number of knocked-down flies/Number of test flies)×100

[4] = tested on: American cockroaches (Periplaneta Americana); experiment: Test Example 7: oil solution spray knock-down test on American cockroaches; assay type: in vivo; settings: adult American cockroaches, 1.5 ml of 0.1% (w/v) oil solution sprayed, repeated twice
Experimental: as §1
as §2, with “Three minutes after spraying,” for “After a prescribed time,”

[5] = tested on: German cockroaches (Blattella germanica); experiment: Test Example 8: oil solution spray knock-down test on German cockroaches; assay type: in vivo; settings: adult German cockroaches, 1.5 ml of 0.00625% (w/v) oil solution sprayed, repeated once
Experimental: Zero point zero zero six two five (0.00625) part of the compound of the present inventions (1), (2), (3), (4) and (5) was dissolved in 10 parts of isopropyl alcohol and the solution was mixed with 89.99375 parts of deodorized kerosene to prepare a 0.00625% (w/v) oil solution.
Ten adult German cockroaches (Blattella germanica, 5 males and 5 females) were released in a test container (diameter 8.75 cm, 7.5 cm high, the bottom face is made of 16 mesh metallic wire), the inner face on which butter was applied, and the container was set at the bottom of a test chamber (bottom face: 46 cm×46 cm, height: 70 cm).
Each 1.5 ml of the oil solution of the compound of the present invention (1), (2), (3), (4) and (5) was sprayed using a spray gun at a pressure of 0.4 kg/cm^2 from 60 cm higher than the upper face of the container. Thirty seconds after the spraying, the container was pulled out from the chamber. Two minutes after spraying, the number of knocked-down cockroaches was counted and a knock-down ratio was determined (repeated once). A knocked-down ratio was calculated by the following equation. Knocked-down ratio(%)=(Number of knocked-down cockroaches/Number of test cockroaches)×100 The results (2 minutes after spraying) are shown in Table 5.

C#CCn1c(C)nn(COC(=O)[C@@H]2[C@@H](C=C(C#N)SC)C2(C)C)c1=O [compound of the present invention (1), 3-methyl-5-oxo-4-(2-propynyl)-4,5-dihydro-[1,2,4]triazolylmethyl=(1R)-trans-3-[(1EZ)-2-cyano-2-(methylthio)ethenyl]-2,2-dimethylcyclopropane carboxylate]
Knock-down ratio (%) 2 minutes after spraying [1]: 100%
Knock-down ratio (%) 1 minutes after spraying [2]: 95%
Knock-down ratio (%) 5 minutes after spraying [3]: 80%
Knock-down ratio (%) 3 minutes after spraying [4]: 100%
Knock-down ratio (%) 2 minutes after spraying [5]: 100%

C#CCn1c(C)nn(COC(=O)[C@@H]2[C@@H](C=C(C#N)SCC)C2(C)C)c1=O (relative stereo) [compound of the present invention (5), 3-methyl-5-oxo-4-(2-propynyl)-4,5-dihydro-[1,2,4]triazolylmethyl=(1R)-trans-3-[(1EZ)-2-cyano-2-(ethylthio)ethenyl]-2,2-dimethylcyclopropane carboxylate]
Knock-down ratio (%) 2 minutes after spraying [5]: 90%

C#CCn1c(C)nn(COC(=O)[C@@H]2[C@@H](/C=C(\C#N)SC)C2(C)C)c1=O [compound of the present invention (2), 3-methyl-5-oxo-4-(2-propynyl)-4,5-dihydro-[1,2,4]triazolylmethyl=(1R)-trans-3-[(1E)-2-cyano-2-(methylthio)ethenyl]-2,2-dimethylcyclopropane carboxylate]
Knock-down ratio (%) 2 minutes after spraying [1]: 92%
Knock-down ratio (%) 3 minutes after spraying [4]: 100%
Knock-down ratio (%) 2 minutes after spraying [5]: 100%
melting point: 104 to 105 °C

C#CCn1c(C)nn(COC(=O)[C@@H]2[C@@H](/C=C(\C#N)SCC)C2(C)C)c1=O [compound of the present invention (4), 3-methyl-5-oxo-4-(2-propynyl)-4,5-dihydro-[1,2,4]triazolylmethyl=(1R)-trans-3-[(1E)-2-cyano-2-(ethylthio)ethenyl]-2,2-dimethylcyclopropane carboxylate]
Knock-down ratio (%) 2 minutes after spraying [1]: 100%
Knock-down ratio (%) 1 minutes after spraying [2]: 100%
Knock-down ratio (%) 5 minutes after spraying [3]: 80%
Knock-down ratio (%) 3 minutes after spraying [4]: 100%
Knock-down ratio (%) 2 minutes after spraying [5]: 100%

C#CCn1c(C)nn(COC(=O)[C@@H]2[C@@H](C=C(C)C)C2(C)C)c1=O [comparative compound (2), 3-methyl-5-oxo-4-(2-propynyl)-4,5-dihydro-[1,2,4]triazolylmethyl=(1R)-trans-3-(2-methyl-1-propenyl)-2,2-dimethylcyclopropane carboxylate, reference compound]
Knock-down ratio (%) 2 minutes after spraying [1]: 33%

C#CCN1CC(=O)N(COC(=O)[C@@H]2[C@H](/C=C(/C#N)OC)C2(C)C)C1=O [comparative compound (1), 2,5-dioxo-3-(2-propynyl)imidazolidinylmethyl=(1R)-cis-3-((Z)-2-cyano-2-methoxyethenyl)-2,2-dimethylcyclopropane carboxylate, reference compound]
Knock-down ratio (%) 2 minutes after spraying [1]: 42%

C#CCn1c(C)nn(COC(=O)[C@@H]2[C@@H](C=C(C#N)SCC)C2(C)C)c1=O [compound of the present invention (3), 3-methyl-5-oxo-4-(2-propynyl)-4,5-dihydro-[1,2,4]triazolylmethyl=(1R)-trans-3-[(1EZ)-2-cyano-2-(ethylthio)ethenyl]-2,2-dimethylcyclopropane carboxylate]
Knock-down ratio (%) 2 minutes after spraying [5]: 100%
